Test results from patent US8765803B1, “Rab7 GTPase inhibitors and related methods of treatment” (STC.UNM, priority 2011, dated 2014).
In brackets after ≈: the same amount, converted by molar mass. Several values for one entry are separate records, joined by “and”; a condition that tells them apart may be missing. Identical values can stand only once. Like-named read-outs stand apart in the source and are kept apart here.

What was measured:
[1] = test system: Ras-related GTPases (Cdc42 wt, Rac1wt, Rac1Q61L, Rab2 wt, Rab7 wt, and H-Ras wt); settings: for Activity for all GTPases tested: multiplex GTPase screen; for Loss in potency across GTPases relative to CID1067700: compared across multiple/all GTPases
Description: The eight GTPases were grouped into two sets: Rab7, H-Ras wild type and its V12 mutant, and Cdc42 and its L61 mutant were assayed in a buffer containing 1 mM EDTA, while Rho, Rac1 and its L61 mutant, and Cdc42 and its L61 mutant were assayed in the same buffer but instead containing 1 mM Mg^2+ with Cdc42 and its mutant being tested in both buffers. Besides 1 mM EDTA or 1 mM Mg^2+, the buffer contained 30 mM HEPES, pH 7.5, 40 mM KCl, 100 mM NaCl, 0.1% (v/v) NP-40 and 1% BSA. For each multiplex reaction, an extra set of beads was included to serve as scavengers to bind any proteins that dissociate from their assigned bead set and thereby reduce interference due to protein dissociation during the assay. […] Briefly, each individual GST-tagged enzyme was incubated with 4 μm glutathione-coated microsphere beads overnight with gentle rotation. The microsphere beads have different red fluorescence dyes incorporated and therefore could be separated by a flow cytometer. The unbound enzyme was removed by sufficient washing with the buffer. The bead sets were then combined and dispensed to 384-well plates at 5 μL/well. For one plate, 0.5 μg each of the enzymes and 4.0×10^4 of each bead were used. Then 100 nL compound was added using Biomek FX followed by the addition of 5 μL/well of BODIPY-FL-GTP (ribose-linked BODIPY). […] The beads were aspirated and delivered with the HyperCyt® instrument and read on CyAnADP flow cytometer. Forward scatter and side scatter was used to define the whole bead population. […] The data was analyzed by the HyperView® software developed by Dr. Bruce Edward at the University of New Mexico.
Briefly, six sets of beads (each with a unique red fluorescence intensity) were individually coated with six representative GST-tagged Ras-related GTPases (Cdc42 wt, Rac1wt, Rac1Q61L, Rab2 wt, Rab7 wt, and H-Ras wt) (FIG. 29A). The individually conjugated beads were then assayed in the presence of individual compounds in the Molecular Libraries Small Molecule Repository using a HyperCyt flow cytometry to identify molecules that altered the binding of fluorescent nucleotide to Ras-family GTPases (36).

U937 cells = assay: Cytotoxicity of compounds, cell density and viability; type: cell-based; settings: 24 h
Description: U937 cells were grown to a density of 0.4×10^6 cells/mL Compounds were added to a final concentration of 20 μM or otherwise indicated. As a control, cells were treated with DMSO of the same volume. After 24 h incubation, the density and viability of the cells were measured with Countess Cell Counter according to the protocols from the manufacturer.

Rab7 GTPase = target: T1, Rab7 GTPase (UniProt P18067); assay: Multiplex bead-based flow cytometry dose-response, BODIPY-FL-GTP binding to GST-tagged GTPase; settings: for EC50: mean of n replicates; for % Res: percent response
T1 construct: fused on or other part: GST tag, used to hold the protein on glutathione beads

[2] = Solubility in PBS and assay media, UV absorbance detection; type: physicochemical
Description: Solubility was measured in phosphate buffered saline (PBS) at room temperature (23° C.). PBS by definition is 137 mM NaCl, 2.7 mM KCl, 10 mM sodium phosphate dibasic, 2 mM potassium phosphate monobasic and a pH of 7.4. Detection was based on UV absorbance. […]. Solubility was also assessed in the each of the four media used in the individual assays. […]

Rab7 wt = settings: previously determined (ref 33); read-out: Equilibrium dissociation constant Kd for wild-type Rab7; cited from earlier work
[3] = Assay format EDTA (1 mM EDTA buffer, 100 nM BODIPY-FL-GTP)
[4] = Assay format Mg (1 mM Mg2+ buffer, 1 nM BODIPY-FL-GTP)
[5] = 23 °C, pH 7.4, aqueous buffer, Solubility
[6] = pH 7.5, aqueous with cosolvent or surfactant or cyclodextrin, Solubility

| Compound | EC50 (Rab7 GTPase; [3]) [nM] | % Res (Rab7 GTPase; Assay format EDTA) [%] | EC50 (Rab7 GTPase; [4]) [nM] | % Res (Rab7 GTPase; Assay format Mg) [%] | further results |
| --- | --- | --- | --- | --- | --- |
| CC1(C)Cc2c(sc(NC(=O)Cc3ccccc3)c2C(=O)O)CO1 [CID740871, 5,5-dimethyl-2-(2-phenylacetamido)-5,7-dihydro-4H-thieno[2,3-c]pyran-3-carboxylic acid] | – | – | – | – | Activity for all GTPases tested [1]: complete loss of activity; Activity for all GTPases tested ([1]; listed as SID 9938117): inactive |
| COC(=O)c1c(NC(=S)NC(=O)c2ccccc2)sc2c1CC(C)(C)OC2 [CID1251121, Methyl 2-(3-benzoylthioureido)-5,5-dimethyl-5,7-dihydro-4H-thieno[2,3-c]pyran-3-carboxylate] | – | – | – | – | Activity for all GTPases tested [1]: complete loss of activity |
| CC1(C)Cc2c(sc(NC(=S)Nc3ccccc3)c2C(=O)O)CO1 [CID1280844, 5,5-dimethyl-2-(3-phenylthioureido)-5,7-dihydro-4H-thieno[2,3-c]pyran-3-carboxylic acid] | – | – | – | – | Activity for all GTPases tested [1]: inactive |
| CC1Cc2c(sc(NC(=S)NC(=O)c3ccccc3)c2C(=O)O)CO1 (stereo not shown) [CID46916263, 2-(3-benzoylthioureido)-5-methyl-5,7-dihydro-4H-thieno[2,3-c]pyran-3-carboxylic acid] | – | – | – | – | Cell viability of U937 cells after treatment (U937 cells; 100 μM): 94% (100 μM) |
| CC1(C)Cc2c(sc(NC(=O)NC(=O)c3ccccc3)c2C(=O)O)CO1 [CID46916265, 2-(3-Benzoylureido)-5,5-dimethyl-5,7-dihydro-4H-thieno[2,3-c]pyran-3-carboxylic acid] | – | – | – | – | Loss in potency across GTPases relative to CID1067700 [1]: 35 fold; Loss in potency across GTPases relative to CID1067700 ([1]; listed as SID 99381130): 7 fold; Cell viability of U937 cells after treatment (U937 cells; 100 μM): 98% (100 μM) |
| O=C(NC(=S)Nc1sc2c(c1C(=O)O)CCOC2)c1ccccc1 [CID46916266, 2-(3-benzoylthioureido)-5,7-dihydro-4H-thieno[2,3-c]pyran-3-carboxylic acid] | – | – | – | – | Cell viability of U937 cells after treatment (U937 cells; 100 μM): 92% (100 μM) |
| CC1(C)Cc2c(sc(NC(=S)NC(=O)c3cccc(F)c3)c2C(=O)O)CO1 [CID53301930] | 320 ± 90 | 90 ± 6 | 290 ± 190 | 39 ± 3 | Cell viability of U937 cells after treatment (U937 cells; 20 μM): 92% |
| CC1(C)Cc2c(sc(NC(=S)NC(=O)c3ccccc3Br)c2C(=O)O)CO1 [CID53301931, 2-(3-(2-Bromobenzoyl)thioureido)-5,5-dimethyl-5,7-dihydro-4H-thieno[2,3-c]pyran-3-carboxylic acid] | 430 ± 680 | 86 ± 10 | 650 ± 870 | 35 ± 4 | solubility [2]: >93 μg/mL,; solubility [2, 5]: > 93 µg/mL and > 198 µM; solubility ([2]; pH 7.5): >93 μg/mL,; solubility ([2]; pH 7.5, read-out: Solubility): >198 µM; solubility ([2]; read-out: Solubility): >198 µM; Cell viability of U937 cells after treatment (U937 cells; 20 μM): 94% |
| COc1ccc(C(=O)NC(=S)Nc2sc3c(c2C(=O)O)CC(C)(C)OC3)cc1 [CID53301932, 2-(3-(4-Methoxybenzoyl)thioureido)-5,5-dimethyl-5,7-dihydro-4H-thieno[2,3-c]pyran-3-carboxylic acid] | 140 ± 70 | 94 ± 14 | 140 ± 110 | 54 ± 2 | Cell viability of U937 cells after treatment (U937 cells; 20 μM): 96% |
| CC1(C)Cc2c(sc(NC(=S)NC(=O)c3ccc(Br)cc3)c2C(=O)O)CO1 [CID53301933] | 300 ± 180 | 93 ± 6 | 270 ± 220 | 41 ± 6 | Cell viability of U937 cells after treatment (U937 cells; 20 μM): 93% |
| COc1cccc(C(=O)NC(=S)Nc2sc3c(c2C(=O)O)CC(C)(C)OC3)c1 [CID53301934, 2-(3-(3-Methoxybenzoyl)thioureido)-5,5-dimethyl-5,7-dihydro-4H-thieno[2,3-c]pyran-3-carboxylic acid] | 150 ± 130 | 68 ± 25 | 320 | 37 | solubility [2]: 54.5 μg/mL,; solubility [2, 5]: 36.5 µg/mL and 86.8 µM; solubility ([2]; pH 7.5): 29.7 μg/mL,; solubility [2, 6]: 33.8 µg/mL and 80.4 µM; solubility ([2]; pH 7.5, read-out: Solubility): 70.6 µM (≈ 29.7 µg/mL); solubility ([2]; read-out: Solubility): 129.6 µM (≈ 54.5 µg/mL); Cell viability of U937 cells after treatment (U937 cells; 20 μM): 94% |
| CC1(C)Cc2c(sc(NC(=S)NC(=O)c3ccccc3F)c2C(=O)O)CO1 [CID53301935, 2-(3-(2-fluorobenzoyl)thioureido)-5,5-dimethyl-5,7-dihydro-4H-thieno[2,3-c]pyran-3-carboxylic acid] | 140 ± 160 | 97 ± 15 | 170 ± 210 | 45 ± 2 | Cell viability of U937 cells after treatment (U937 cells; 20 μM): 96% |
| CC1(C)Cc2c(sc(NC(=S)NC(=O)c3cccc(Br)c3)c2C(=O)O)CO1 [CID53301936] | 2510 ± 2100 | 41 ± 0 | > 100000 | – | – |
| CC1(C)CCc2sc(NC(=S)NC(=O)c3ccccc3)c(C(=O)O)c2C1 [CID53301937] | 66 ± 20 | 97 ± 5 | 63 ± 10 | 53 ± 1 | Cell viability of U937 cells after treatment (U937 cells; 20 μM): 91% |
| Cc1ccc(C(=O)NC(=S)Nc2sc3c(c2C(=O)O)CC(C)(C)OC3)cc1 [CID53377395] | 140 | 102 | 97 | 40 | – |
| CC1(C)Cc2c(sc(NC(=S)NC(=O)C3CCCCC3)c2C(=O)O)CO1 [CID53377396] | 810 | 89 | 460 | 39 | – |
| COc1ccccc1C(=O)NC(=S)Nc1sc2c(c1C(=O)O)CC(C)(C)OC2 [CID53377397] | 1120 | 52 | – | – | – |
| CC1(C)Cc2c(sc(NC(=S)NC(=O)c3cccs3)c2C(=O)O)CO1 [CID53377398] | 25 | 103 | 25 | 56 | – |
| CC(C)(C)C1Cc2c(sc(NC(=S)NC(=O)c3ccccc3)c2C(=O)O)CO1 (stereo not shown) [CID53377399] | 470 | 18 | 220 | 47 | – |
| Cc1cccc(C(=O)NC(=S)Nc2sc3c(c2C(=O)O)CC(C)(C)OC3)c1 [CID53377400] | 1160 | 93 | 360 | 30 | – |
| CCC1(C)Cc2c(sc(NC(=S)NC(=O)c3ccccc3)c2C(=O)O)CO1 (stereo not shown) [CID53377401] | 37 | 109 | 35 | 43 | – |
| CC1(C)Cc2c(sc(NC(=S)NC(=O)c3ccco3)c2C(=O)O)CO1 [CID53377402] | 74 | 105 | 82 | 63 | – |
| O=C(NC(=S)Nc1sc2c(c1C(=O)O)CC1(CCCC1)OC2)c1ccccc1 [CID53377403] | 35 | 72 | 33 | 56 | – |
| Cc1ccccc1C(=O)NC(=S)Nc1sc2c(c1C(=O)O)CC(C)(C)OC2 [CID53377404] | 410 | 95 | 520 | 47 | – |
| CC1(C)Cc2c(sc(NC(=S)NC(=O)c3ccc(F)cc3)c2C(=O)O)CO1 [CID53377405, 2-(3-(4-Fluorobenzoyl)thioureido)-5,5-dimethyl-5,7-dihydro-4H-thieno[2,3-c]pyran-3-carboxylic acid] | 95 | 100 | 77 | 39 | solubility [2]: 67.6 μg/mL,; solubility [2, 5]: 85.7 µg/mL and 210 µM; solubility ([2]; pH 7.5): 69.1 μg/mL,; solubility [2, 6]: 98.2 µg/mL and 240 µM; solubility ([2]; pH 7.5, read-out: Solubility): 169.2 µM (≈ 69.1 µg/mL); solubility ([2]; read-out: Solubility): 165.5 µM (≈ 67.6 µg/mL); Cell viability of U937 cells after treatment (U937 cells; 20 μM): 94% |
| BODIPY FL GDP 2′-(or -3′)-O—[N-(2-aminoethyl)urethane] [BODIPY-GDP] | – | – | – | – | Kd (Rab7 wt): 40 nM |
| BODIPY FL GTP 2′-(or 3′)-O—[N-(2-aminoethyl)urethane] [BODIPY-GTP] | – | – | – | – | Kd (Rab7 wt): 100 nM |
